# Source: article PMC8691750, “Euphorbia Factor L2 ameliorates the Progression of K/BxN Serum-Induced Arthritis by Blocking TLR7 Mediated IRAK4/IKKβ/IRF5 and NF-kB Signaling Pathways” (Frontiers in Pharmacology, 2021)
# Several values for one entry are separate records, joined by “and”; a condition that tells them apart may be missing. Identical values can stand only once.
# Tested on: TLR signalling pathway genes
# Test: Toll-like Receptor Pathway PCR array of ankles
# Type: in vivo, C57BL/6 mice
# Conditions: for S40/SIA (fold change) / log2(fold change) S40/SIA: S40 group vs SIA group
# Description: Total RNA was isolated from the right ankles using the TRIzol Reagent (Invitrogen) and purified with RNeasy Mini Kit and RNase-Free DNase Set (Qiagen). RNA quality was determined using a spectrophotometer and was reversely transcribed using Wcgene® mRNA cDNA kit. The complementary DNA was used on the Toll-like Receptor Pathway PCR Array plate (Wcgene® biotech, China).
structure (smiles),measurement,setting,value
"C=C1C(OC(=O)c2ccccc2)CC2C(C=C(C)C(=O)C3(OC(C)=O)CC(C)C(OC(=O)c4ccccc4)C3C1OC(C)=O)C2(C)C (stereo not shown) [EFL2, Euphorbia factor L2]",S40/SIA (fold change),Irak2 mRNA,0.4814
same,log2(fold change) S40/SIA,Irak2 mRNA,-1.055
same,"fold-GAPDH, Irak3","Irak3 mRNA in ankles of STA mice, relative to GAPDH, one value per animal (samples S401-S405)",0.01639 and 0.02176 and 0.01462 and 0.00868
same,S40/SIA (fold change),Irak3 mRNA,0.4891
same,log2(fold change) S40/SIA,Irak3 mRNA,-1.032
same,"fold-GAPDH, Irak4","Irak4 mRNA in ankles of STA mice, relative to GAPDH, one value per animal (samples S401-S405)",0.005444 and 0.007871 and 0.004771 and 0.003248
same,"fold-GAPDH, Irf1","Irf1 mRNA in ankles of STA mice, relative to GAPDH, one value per animal (samples S401-S405)",0.006938 and 0.008232
same,S40/SIA (fold change),Irf1 mRNA,0.3319
same,log2(fold change) S40/SIA,Irf1 mRNA,-1.591
same,"fold-GAPDH, Irf3","Irf3 mRNA in ankles of STA mice, relative to GAPDH, one value per animal (samples S401-S405)",0.01116 and 0.01143 and 0.004857
same,S40/SIA (fold change),Irf3 mRNA,0.3241
same,log2(fold change) S40/SIA,Irf3 mRNA,-1.626
same,"fold-GAPDH, Jun","Jun mRNA in ankles of STA mice, relative to GAPDH, one value per animal (samples S401-S405)",0.04078 and 0.0443 and 0.03642 and 0.03036
same,S40/SIA (fold change),Jun mRNA,0.3678
same,log2(fold change) S40/SIA,Jun mRNA,-1.443
same,"fold-GAPDH, Ly86","Ly86 mRNA in ankles of STA mice, relative to GAPDH, one value per animal (samples S401-S405)",0.008619 and 0.01651 and 0.01407 and 0.001011
same,"fold-GAPDH, Ly96","Ly96 mRNA in ankles of STA mice, relative to GAPDH, one value per animal (samples S401-S405)",0.00648 and 0.008818 and 0.008037 and 0.003545
same,S40/SIA (fold change),Ly96 mRNA,0.3878
same,log2(fold change) S40/SIA,Ly96 mRNA,-1.367
same,"fold-GAPDH, Map2k3","Map2k3 mRNA in ankles of STA mice, relative to GAPDH, one value per animal (samples S401-S405)",0.0383 and 0.04062 and 0.04366 and 0.0009844
same,"fold-GAPDH, Map2k4","Map2k4 mRNA in ankles of STA mice, relative to GAPDH, one value per animal (samples S401-S405)",0.006054 and 0.009032 and 0.01171 and 0.005161
same,S40/SIA (fold change),Map2k4 mRNA,0.8651
same,log2(fold change) S40/SIA,Map2k4 mRNA,-0.209
same,"fold-GAPDH, Map3k1","Map3k1 mRNA in ankles of STA mice, relative to GAPDH, one value per animal (samples S401-S405)",0.006062 and 0.005781 and 0.1236
same,"fold-GAPDH, Map3k7","Map3k7 mRNA in ankles of STA mice, relative to GAPDH, one value per animal (samples S401-S405)",0.01592 and 0.021 and 0.01646 and 0.01133
same,"fold-GAPDH, Mapk8ip3","Mapk8ip3 mRNA in ankles of STA mice, relative to GAPDH, one value per animal (samples S401-S405)",0.001064 and 0.001038
same,"fold-GAPDH, Mapk8","Mapk8 mRNA in ankles of STA mice, relative to GAPDH, one value per animal (samples S401-S405)",0.01945 and 0.02479 and 0.0101
same,"fold-GAPDH, Mapk9","Mapk9 mRNA in ankles of STA mice, relative to GAPDH, one value per animal (samples S401-S405)",0.001275 and 0.001267 and 0.00173 and 0.000754
same,"fold-GAPDH, Muc13","Muc13 mRNA in ankles of STA mice, relative to GAPDH, one value per animal (samples S401-S405)",6.559e-5 and 0.0002674 and 0.000223 and 0.0001076
same,"fold-GAPDH, Myd88","Myd88 mRNA in ankles of STA mice, relative to GAPDH, one value per animal (samples S401-S405)",0.009066 and 0.0089 and 0.006533 and 0.004478
same,S40/SIA (fold change),Myd88 mRNA,0.1447
same,log2(fold change) S40/SIA,Myd88 mRNA,-2.789
same,"fold-GAPDH, Nfkb1","Nfkb1 mRNA in ankles of STA mice, relative to GAPDH, one value per animal (samples S401-S405)",0.02137 and 0.03037 and 0.044 and 0.01259
same,"fold-GAPDH, Nfkb2","Nfkb2 mRNA in ankles of STA mice, relative to GAPDH, one value per animal (samples S401-S405)",0.005983 and 0.008129 and 0.004372 and 0.004079
same,S40/SIA (fold change),Nfkb2 mRNA,0.2395
same,log2(fold change) S40/SIA,Nfkb2 mRNA,-2.062
same,"fold-GAPDH, Nfkbia","Nfkbia mRNA in ankles of STA mice, relative to GAPDH, one value per animal (samples S401-S405)",0.03064 and 0.03111 and 0.02056 and 0.01675
same,S40/SIA (fold change),Nfkbia mRNA,0.2445
same,log2(fold change) S40/SIA,Nfkbia mRNA,-2.032
same,"fold-GAPDH, Nfkbib","Nfkbib mRNA in ankles of STA mice, relative to GAPDH, one value per animal (samples S401-S405)",0.00388 and 0.005737 and 0.004539 and 0.002397
same,S40/SIA (fold change),Nfkbib mRNA,0.4073
same,log2(fold change) S40/SIA,Nfkbib mRNA,-1.2959
same,"fold-GAPDH, Nfrkb","Nfrkb mRNA in ankles of STA mice, relative to GAPDH, one value per animal (samples S401-S405)",0.003341 and 0.001769 and 0.003291
same,"fold-GAPDH, Nr2c2","Nr2c2 mRNA in ankles of STA mice, relative to GAPDH, one value per animal (samples S401-S405)",0.008167 and 0.009954 and 0.006912 and 0.004742
same,S40/SIA (fold change),Nr2c2 mRNA,0.5521
same,log2(fold change) S40/SIA,Nr2c2 mRNA,-0.8571
same,"fold-GAPDH, Peli1","Peli1 mRNA in ankles of STA mice, relative to GAPDH, one value per animal (samples S401-S405)",0.01623 and 0.02035 and 0.01296 and 0.0006428
same,S40/SIA (fold change),Peli1 mRNA,0.462
same,log2(fold change) S40/SIA,Peli1 mRNA,-1.114
same,"fold-GAPDH, Pglyrp1","Pglyrp1 mRNA in ankles of STA mice, relative to GAPDH, one value per animal (samples S401-S405)",0.001422 and 0.0004159 and 0.002383
same,S40/SIA (fold change),Pglyrp1 mRNA,0.2161
same,log2(fold change) S40/SIA,Pglyrp1 mRNA,-2.21
same,"fold-GAPDH, Ppara","Ppara mRNA in ankles of STA mice, relative to GAPDH, one value per animal (samples S401-S405)",0.001398 and 0.003006 and 0.002272 and 0.0004292
same,"fold-GAPDH, Ptgs2","Ptgs2 mRNA in ankles of STA mice, relative to GAPDH, one value per animal (samples S401-S405)",0.001434 and 0.000397 and 0.0002674 and 0.0003018
same,S40/SIA (fold change),Ptgs2 mRNA,0.03786
same,log2(fold change) S40/SIA,Ptgs2 mRNA,-4.723
same,S40/SIA (fold change),Rel mRNA,0.2762
same,log2(fold change) S40/SIA,Rel mRNA,-1.8562
same,S40/SIA (fold change),Ticam1 mRNA,0.59
same,log2(fold change) S40/SIA,Ticam1 mRNA,-0.7611
same,S40/SIA (fold change),Tlr2 mRNA,0.1682
same,log2(fold change) S40/SIA,Tlr2 mRNA,-2.571
same,S40/SIA (fold change),Tlr3 mRNA,0.7859
same,log2(fold change) S40/SIA,Tlr3 mRNA,-0.3477
same,S40/SIA (fold change),Tlr4 mRNA,0.5705
same,log2(fold change) S40/SIA,Tlr4 mRNA,-0.8096
same,S40/SIA (fold change),Tlr5 mRNA,0.188
same,log2(fold change) S40/SIA,Tlr5 mRNA,-2.411
same,S40/SIA (fold change),Tlr7 mRNA,0.09461
same,log2(fold change) S40/SIA,Tlr7 mRNA,-3.402
